Measurements published in patent US20230028880A1, “CD38-BINDING AGENTS AND USES THEREOF” (Biohaven Therapeutics Ltd., priority 2019, published 2023).
Values joined by “and” are separate entries in the source; they are usually repeats but may differ in a detail not shown here. Equal values may be shown once. “Also recorded” adds a separate entry of the source.

What was measured:
[1] = system: Effector cells (ADCC reporter cells) with Daudi cells; assay: ADCC reporter assay: Daudi cells, IVIG and ADCC reporter effector cells (luciferase, RLU); format: cell-based; conditions: IVIG; for Luminescence, ADCC reporter assay: duplicate columns
Protocol: Daudi (ATCC CCL-213) cells were resuspended in Opti-MEM (Thermo Fisher Scientific #31985070), counted (Life Technologies Countless II cell counter) and plated (5,000 cells in 25 uL/well; Corning plates: 3917). Compounds w diluted in DMSO (MP 191418) to 1000× the starting concentration used in the assay into a 96 well polypropylene plate (Corning 3357). They were then serially diluted in ½ log increments to generate 8 concentrations in DMSO (assay dependent). These DMSO stocks were then step diluted 1/250 into Opti-MEM. Step diluted compound range was then added into the polypropylene assay plate 25 uL/well. The human antibody solution (Grifols IVIG Fleogogamma #61953-0005-2) was diluted to 40 ug/mL and added 25 uL/well. Effector cells (ADCC reporter cells—Promega kit: G7018) were added 37,500 in 25 uL/well. The assay was then incubated 18 h at 37° C. Following the induction period, the plate was equilibrated to 25° C. followed the addition of the luciferase substrate (75 uL/well, 1 vial in 10 mL of Bio-Glo assay buffer, Promega kit: G7018). The luminescence was measured (Biotek Synergy H1 microplate reader).

Daudi cells [2] = assay: Ternary binding assay: recruitment of PE-labeled human IgG1k to Daudi cells (flow cytometry, MFI); format: cell-based; conditions: duplicate columns
Protocol: Various technologies can be utilized to assess and/or characterize recruitment of antibodies to target cells, e.g., cancer cells. One such assay is a ternary binding assay. An exemplary protocol is described herein. Compounds were diluted in DMSO (MP 191418) to 1000× the starting concentration used in the assay into a 96 well polypropylene plate (Corning 3357). They were then serially diluted in ½ log increments to generate 8-12 concentrations in DMSO (assay dependent). These DMSO stocks were then step diluted 1/100 into PBS (VWR Cat. #20012043). Step diluted compound range was then added into the polypropylene assay plate 1/10 the volume of the assay volume. Daudi (ATCC CCL-213), a non-adherent cell line, were counted and centrifuged and resuspended at a concentration of 100,000 cells per 90 ul in Flow buffer: 1% BSA (American Bio AB01088-00100); 0.5 mM EDTA (VWR 45001-122); PBS (VWR Cat. #20012043) with 11.1 ug/mL human IgG1k Phycoerythrin labeled (SouthernBiotech #0151K-09 PE). The cells were then added into the polypropylene plate with the step diluted compounds and incubated at 37° C. for 30 min. At the end of the incubation, the cells were centrifuged and washed 2× with How buffer containing 0.5% Tween 20 (BP337-500). Samples were analyzed on a BD FacsCelesta. Mean fluorescence was analyzed using Graphpad Prism and curves were fit using log(inhibitor) vs. response—Variable slope (four parameters).

NK cells = assay: Depletion of CD38-expressing effector cells: purified NK cells, 18 h, Zombie viability dye; format: cell-based, human; conditions: I-9 300 nM-10 nM, Daratumumab 3 ug/mL-0.1 ug/mL, IvIG 10 ug/mL, 18 h (FIG. 4)
Description: In some embodiments, provided technologies provides various advantages compared to existing CD38-based technologies, e.g., those using CD38 antibodies. […] As appreciated by those skilled in the art, various technologies can be utilized to assess depleting of CD38-expressing effector cells. In one example, NK cells were purified from frozen stock using 3×10^7 PBMC preparations ([…] technologies) using EasySep™ Human NK cell Isolation Kit […] Technologies (cat #17955) according to manufacturer's instructions. NK cells were plated at the density of 2×10^6 cells per mL of OPTIMEM media, in a 100 uL volume per well of round bottom 96 well plates. Daratumumab was added to a final concentration range of 3 ug/mL to 0.1 ug/mL. […] IvIG was used at a final concentration of 10 ug/mL. Cells were mixed by pipetting up and down and incubated for 18 h at 37° C. At the end of the incubation period, cells were centrifuged at 400 g for 5 min and re-suspended in PBS. Following this, cells were stained with 1 uM Zombie viability dye (Biolegend, catalog #423111) according to manufacturer's instructions and incubated for 15 minutes at room temperature. […] Cells were analyzed on BD FACSCelesta flow cytometer (BD Biosciences). […] Percentages of Zombie green positive NK cells were analyzed and graphed using GraphPad Prism software.

Daudi cells [3] = assay: KILR ADCC killing assay: KILR-transfected Daudi cells with purified NK cells (% dead cells); format: cell-based; conditions: for % dead cells, KILR ADCC killing assay: KILR Daudi cells with purified NK cells, duplicate columns
Description: In some embodiments, CD38-ABT ARMs bind to target cells and antibodies, e.g., human antibodies. In some embodiments, such ternary structures present antibodies to effector cells such as NK cell and bind to, e.g., CD16a receptors. […] Daudi cells were transfected with KILR reporter construct (DiscoverX #97-0002). An attenuated lentivirus was designed to deliver a Moloney Murine Leukemia Virus (MMLV) engineered to drive expression of a housekeeping gene tagged with Enhanced ProLabel (ePL) a beta-Galactosidase (beta-gal) reporter fragment. This construct was designed to remain inside cells. Death leads to the release of the KILR reporter protein into the medium. Detection reagent (DiscoverX #97-0001L) contained the complementing beta-gal reporter fragment enzyme acceptor (EA). The two components combined to generate a chemiluminescent signal.

In the case of `CCCCC[C@@H]1NC(=O)[C@H](CCCNC(=N)N)NC(=O)[C@H](C)NC(=O)CSC[C@@H](C(=O)NCCOCCOCCOCCOCCOCCOCCn2nnc3c2CCC2C(CC3)C2COC(=O)N2CCC(C(=O)NCC(=O)N[C@H](CCC(=O)N[C@H](CCC(=O)N[C@H](CCC(=O)NCCCCCCCCCCCC(=O)O)C(=O)N[C@H](CCC(=O)N[C@H](CCC(=O)NCC(=O)NCC(=O)N[C@@H](CC(=O)O)C(=O)N[C@H]3CSSC[C@@H](C(=O)N[C@H](C(=O)O)[C@@H](C)O)NC(=O)[C@H](Cc4c[nH]c5ccccc45)NC(=O)[C@H](C(C)C)NC(=O)[C@H](CC(C)C)NC(=O)[C@H](CCC(=O)O)NC(=O)CNC(=O)[C@H](CC(C)C)NC(=O)[C@H](Cc4c[nH]cn4)NC(=O)[C@H](Cc4c[nH]c5ccccc45)NC(=O)[C@H](C)NC3=O)C(=O)O)C(=O)O)C(=O)O)C(=O)O)CC2)NC(=O)[C@H](CC(=O)O)NC(=O)[C@H](CCCCC)NC(=O)[C@H](Cc2ccc(-c3ccccc3)cc2)NC(=O)[C@H](CC(C)C)NC(=O)[C@H](C(C)C)NC(=O)CNC(=O)[C@H](CC(=O)O)NC(=O)[C@H](Cc2c[nH]cn2)NC(=O)[C@H](Cc2ccc(O)cc2)NC1=O` (stereo partly shown) [I-9], the EC50 ([1]; ADCC reporter assay) is reported as 5.5 nM, the EC70 ([1]; ADCC reporter cells, 18 h, one set of experiment (FIG. 2)) is reported as “about 0.92 nM” and the “Luminescence, ADCC reporter assay” value ([1]; compound 0.3 nM, 18 h) is reported as 18458 RLU and 20362 RLU. The “Luminescence, ADCC reporter assay” value ([1]; compound 1 nM, 18 h) was 20777 RLU and 20342 RLU, the “Luminescence, ADCC reporter assay” value ([1]; compound 3 nM, 18 h) was 24006 RLU and 24206 RLU and the “Luminescence, ADCC reporter assay” value ([1]; compound 10 nM, 18 h) was 35274 RLU and 44761 RLU. The “Luminescence, ADCC reporter assay” value ([1]; compound 30 nM, 18 h) was 55170 RLU and 59273 RLU, the “Luminescence, ADCC reporter assay” value ([1]; compound 100 nM, 18 h) was 60746 RLU and 68867 RLU and the “Luminescence, ADCC reporter assay” value ([1]; compound 300 nM, 18 h) was 55313 RLU and 76306 RLU. For the same molecule, the “Luminescence, ADCC reporter assay” value ([1]; compound 1000 nM, 18 h) was 51790 RLU and 65856 RLU, the “MFI, recruitment of PE-labeled human IgG1k to Daudi cells” value (from here on “MFI, recruitment”) (Daudi cells [2]; compound 0.03 nM) was 2297 and 2037 and the “MFI, recruitment” value (Daudi cells [2]; compound 0.1 nM) was 2514 and 2495. For the same molecule, the “MFI, recruitment” value (Daudi cells [2]; compound 0.3 nM) was 2861 and 2727, the “MFI, recruitment” value (Daudi cells [2]; compound 1 nM) was 3063 and 2925 and the “MFI, recruitment” value (Daudi cells [2]; compound 3 nM) was 4268 and 4210. For the same molecule, the “MFI, recruitment” value (Daudi cells [2]; compound 10 nM) was 7133 and 6933, the “MFI, recruitment” value (Daudi cells [2]; compound 30 nM) was 10630 and 8384 and the “MFI, recruitment” value (Daudi cells [2]; compound 100 nM) was 9899 and 10608. For the same molecule, the “MFI, recruitment” value (Daudi cells [2]; compound 300 nM) was 7835 and 7873, the “MFI, recruitment” value (Daudi cells [2]; compound 1000 nM) was 4929 and 5108 and the “MFI, recruitment” value (Daudi cells [2]; compound 3000 nM) was 4383 and 4301. For the same molecule, the “Depletion of CD38-expressing effector cells (NK cells)” value (NK cells) was “did not deplete CD38-expressing effector cells; also recorded: do not significantly deplete effector cells”, the EC50 (Daudi cells [3]; KILR Daudi cells, purified NK cells, one set of experiments (FIG. 3)) was 6.7 nM and the “% dead cells, KILR ADCC killing assay” value (Daudi cells [3]; compound 0.3 nM) was 5.1% and 5.5%. The “% dead cells, KILR ADCC killing assay” value (Daudi cells [3]; compound 1 nM) was 4.8% and 4.7%, the “% dead cells, KILR ADCC killing assay” value (Daudi cells [3]; compound 3 nM) was 5% and the “% dead cells, KILR ADCC killing assay” value (Daudi cells [3]; compound 10 nM) was 5.3% and 5.7%. The “% dead cells, KILR ADCC killing assay” value (Daudi cells [3]; compound 30 nM) was 6.1% and 6.9%, the “% dead cells, KILR ADCC killing assay” value (Daudi cells [3]; compound 100 nM) was 6.6% and 7.4% and the “% dead cells, KILR ADCC killing assay” value (Daudi cells [3]; compound 300 nM) was 7.3% and 8.1%. For the same molecule, the “% dead cells, KILR ADCC killing assay” value (Daudi cells [3]; compound 1000 nM) was 6.8% and 6.7%.
